Laboratory results reported in patent publication US11076595B2, “1-(n,n-disubstituted carbamoyl) 4-(substituted sulfonyl)triazolin-5-one derivative, 4-(n,n-disubstituted carbamoyl) 1-(substituted sulfonyl)triazolin-5-one derivative, and herbicide containing said derivative as active ingredient” (HOKKO CHEMICAL INDUSTRY CO., LTD., priority 2017, dated 2021).

Experiments:
Format in all cases: in vivo
Chenopodium album [1] = assay: Test Example 14: herbicidal effect test by foliage treatment in upland field; settings: 7 days after sowing, 120 g/10a, 14 days after treatment
Outline: (§1)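 Dose: 120 g a.i. per 10 are, sprayed in 100 L water per 10 are onto pots seven days post-sowing in alluvial soil. After 14 days, weed dry weight relative to untreated plots gave suppression rate (%); duplicate plots per concentration.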

crabgrass [2] = assay: as above; settings: 7 days after sowing, 120 g/10a, 14 days after treatment
Outline: as §1

Scirpus juncoides [3] = assay: Test Example 11: herbicidal effect test by soil treatment in paddy field; settings: 120 g/10a active ingredient, 14 days after treatment
Outline: (§2)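 Puddled paddy soil with N:P:K 17:17:17 fertilizer in Wagner pots; 30 seeds per species sown at 0–1 cm, flooded to about 3 cm, kept in a glass greenhouse. Water-diluted emulsifiable concentrate dripped in immediately after sowing at 120 g a.i. per 10 are. Suppression from dry weight versus untreated at 14 days.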

Echinochloa crus-galli [4] = assay: as above; settings: 120 g/10a active ingredient, 14 days after treatment
Outline: as §2

Lindernia pyxidaria [5] = assay: as above; settings: 120 g/10a active ingredient, 14 days after treatment
Outline: as §2

Monochoria vaginalis [6] = assay: as above; settings: 120 g/10a active ingredient, 14 days after treatment
Outline: as §2

Scirpus juncoides [7] = assay: Test Example 12: herbicidal effect test by treatment during growing period in paddy field; settings: 120 g/10a; treatment seven days after sowing in flooded paddy pot; assessed 14 days after treatment
Outline: (§3)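 Growing-period treatment in flooded paddy pots: the diluted emulsifiable concentrate was dripped in at 120 g a.i. per 10 are seven days after seeding. Inhibition is expressed as percent reduction in dry weight versus untreated pots, measured 14 days later in duplicate.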

Echinochloa crus-galli [8] = assay: as above; settings: 120 g/10a; treatment seven days after sowing in flooded paddy pot; assessed 14 days after treatment
Outline: as §3

Lindernia pyxidaria [9] = assay: as above; settings: 120 g/10a; treatment seven days after sowing in flooded paddy pot; assessed 14 days after treatment
Outline: as §3

Monochoria vaginalis [10] = assay: as above; settings: 120 g/10a; treatment seven days after sowing in flooded paddy pot; assessed 14 days after treatment
Outline: as §3

Chenopodium album [11] = assay: Test Example 13: herbicidal effect test by soil treatment in upland field; settings: 120 g/10a, 14 days after treatment
Protocol: (§4) A pot having a size of 36 cm^2 was filled with field soil (alluvial soil) and after mixing the soil of the surface layer of 1 cm with 20 grains of each weed seed of crabgrass, Echinochloa crus-galli, Chenopodium album and Amaranthus viridis, the surface layer was pressed lightly. One day after the sowing, an emulsifiable concentrate prepared according to Formulation Example 15 by using the compound shown in Table 11 below was diluted with water, and the water-diluted formulation was sprayed on the soil surface at a ratio of 100 liter per 10 are. The application rate of the active ingredient, by conversion, corresponded to 120 g per 10 are. Fourteen Days after the formulation treatment, the herbicidal effect was evaluated by the same criteria as in Test Example 11.

Echinochloa crus-galli [12] = assay: as above; settings: 120 g/10a, 14 days after treatment
Protocol: as §4

Amaranthus viridis [13] = assay: as above; settings: 120 g/10a, 14 days after treatment
Protocol: as §4

crabgrass [14] = assay: as above; settings: 120 g/10a, 14 days after treatment
Protocol: as §4

Echinochloa crus-galli [15] = assay: Test Example 14: herbicidal effect test by foliage treatment in upland field; settings: 7 days after sowing, 120 g/10a, 14 days after treatment
Outline: as §1

Amaranthus viridis [16] = assay: as above; settings: 7 days after sowing, 120 g/10a, 14 days after treatment
Outline: as §1

CC(C)N(C(=O)n1cnn(S(C)(=O)=O)c1=O)c1ccccc1 [Compound 11-1]
90%: herbicidal effect, Crabgrass (crabgrass [2]) | Weed suppression rate (%) Scirpus juncoides (Scirpus juncoides [3]) | Weed suppression rate (%) Echinochloa crus-galli (Echinochloa crus-galli [4]) | Weed suppression rate (%) Scirpus juncoides (Scirpus juncoides [7]) | Weed suppression rate (%) Echinochloa crus-galli (Echinochloa crus-galli [8]) | herbicidal effect, Amaranthus viridis (Amaranthus viridis [13]) | herbicidal effect, Crabgrass (crabgrass [14]) | herbicidal effect, Amaranthus viridis (Amaranthus viridis [16])
80%: herbicidal effect, Chenopodium album (Chenopodium album [1]) | Weed suppression rate (%) Lindemia pyxidaria (Lindernia pyxidaria [5]) | Weed suppression rate (%) Monochoria vaginalis (Monochoria vaginalis [6]) | Weed suppression rate (%) Lindemia pyxidaria (Lindernia pyxidaria [9]) | Weed suppression rate (%) Monochoria vaginalis (Monochoria vaginalis [10]) | herbicidal effect, Chenopodium album (Chenopodium album [11]) | herbicidal effect, Echinochloa crus-galli (Echinochloa crus-galli [12]) | herbicidal effect, Echinochloa crus-galli (Echinochloa crus-galli [15])

CC(C)N(C(=O)n1cnn(S(C)(=O)=O)c1=O)c1cccc(F)c1F [Compound 11-11]
30%: herbicidal effect, Chenopodium album (Chenopodium album [11]) | herbicidal effect, Amaranthus viridis (Amaranthus viridis [13])
100%: herbicidal effect, Crabgrass (crabgrass [2]) | Weed suppression rate (%) Scirpus juncoides (Scirpus juncoides [3]) | Weed suppression rate (%) Echinochloa crus-galli (Echinochloa crus-galli [4]) | Weed suppression rate (%) Lindemia pyxidaria (Lindernia pyxidaria [5]) | Weed suppression rate (%) Monochoria vaginalis (Monochoria vaginalis [6]) | Weed suppression rate (%) Scirpus juncoides (Scirpus juncoides [7]) | Weed suppression rate (%) Echinochloa crus-galli (Echinochloa crus-galli [8]) | Weed suppression rate (%) Monochoria vaginalis (Monochoria vaginalis [10]) | herbicidal effect, Echinochloa crus-galli (Echinochloa crus-galli [15])
90%: herbicidal effect, Crabgrass (crabgrass [14])
80%: Weed suppression rate (%) Lindemia pyxidaria (Lindernia pyxidaria [9]) | herbicidal effect, Echinochloa crus-galli (Echinochloa crus-galli [12])
60%: herbicidal effect, Amaranthus viridis (Amaranthus viridis [16])
70%: herbicidal effect, Chenopodium album (Chenopodium album [1])

CCc1ccc(S(=O)(=O)n2ncn(C(=O)N(CC)CC)c2=O)cc1 [Compound 11-665]
40%: Weed suppression rate (%) Scirpus juncoides (Scirpus juncoides [3]) | Weed suppression rate (%) Lindemia pyxidaria (Lindernia pyxidaria [5]) | Weed suppression rate (%) Monochoria vaginalis (Monochoria vaginalis [6])
60%: Weed suppression rate (%) Scirpus juncoides (Scirpus juncoides [7]) | Weed suppression rate (%) Lindemia pyxidaria (Lindernia pyxidaria [9]) | Weed suppression rate (%) Monochoria vaginalis (Monochoria vaginalis [10])
80%: Weed suppression rate (%) Echinochloa crus-galli (Echinochloa crus-galli [4]) | herbicidal effect, Echinochloa crus-galli (Echinochloa crus-galli [12]) | herbicidal effect, Crabgrass (crabgrass [14])
0%: herbicidal effect, Chenopodium album (Chenopodium album [11]) | herbicidal effect, Amaranthus viridis (Amaranthus viridis [13])
90%: Weed suppression rate (%) Echinochloa crus-galli (Echinochloa crus-galli [8])

CC(C)N(C(=O)n1cnn(S(=O)(=O)c2ccc(C(C)(C)C)cc2)c1=O)c1ccc(F)cc1F [Compound 11-682]
90%: Weed suppression rate (%) Scirpus juncoides (Scirpus juncoides [3]) | Weed suppression rate (%) Lindemia pyxidaria (Lindernia pyxidaria [5]) | Weed suppression rate (%) Monochoria vaginalis (Monochoria vaginalis [6]) | Weed suppression rate (%) Echinochloa crus-galli (Echinochloa crus-galli [8]) | Weed suppression rate (%) Lindemia pyxidaria (Lindernia pyxidaria [9]) | Weed suppression rate (%) Monochoria vaginalis (Monochoria vaginalis [10]) | herbicidal effect, Echinochloa crus-galli (Echinochloa crus-galli [12])
40%: herbicidal effect, Chenopodium album (Chenopodium album [11]) | herbicidal effect, Amaranthus viridis (Amaranthus viridis [13])
100%: Weed suppression rate (%) Echinochloa crus-galli (Echinochloa crus-galli [4])
80%: Weed suppression rate (%) Scirpus juncoides (Scirpus juncoides [7]) | herbicidal effect, Crabgrass (crabgrass [14])

CCN(CC)C(=O)n1cnn(S(=O)(=O)c2ccccc2C(F)(F)F)c1=O [Compound 11-710]
40%: Weed suppression rate (%) Scirpus juncoides (Scirpus juncoides [3]) | Weed suppression rate (%) Lindemia pyxidaria (Lindernia pyxidaria [5]) | Weed suppression rate (%) Monochoria vaginalis (Monochoria vaginalis [6]) | Weed suppression rate (%) Scirpus juncoides (Scirpus juncoides [7]) | Weed suppression rate (%) Lindemia pyxidaria (Lindernia pyxidaria [9]) | Weed suppression rate (%) Monochoria vaginalis (Monochoria vaginalis [10]) | herbicidal effect, Amaranthus viridis (Amaranthus viridis [13])
60%: herbicidal effect, Chenopodium album (Chenopodium album [11])
80%: Weed suppression rate (%) Echinochloa crus-galli (Echinochloa crus-galli [8]) | herbicidal effect, Crabgrass (crabgrass [14])
70%: Weed suppression rate (%) Echinochloa crus-galli (Echinochloa crus-galli [4])
100%: herbicidal effect, Echinochloa crus-galli (Echinochloa crus-galli [12])

CC(C)N(C(=O)n1cnn(S(=O)(=O)c2ccccc2C(F)(F)F)c1=O)c1ccc(F)cc1F [Compound 11-711]
70%: Weed suppression rate (%) Lindemia pyxidaria (Lindernia pyxidaria [9]) | Weed suppression rate (%) Monochoria vaginalis (Monochoria vaginalis [10])
90%: Weed suppression rate (%) Scirpus juncoides (Scirpus juncoides [3]) | Weed suppression rate (%) Echinochloa crus-galli (Echinochloa crus-galli [4]) | Weed suppression rate (%) Lindemia pyxidaria (Lindernia pyxidaria [5]) | Weed suppression rate (%) Monochoria vaginalis (Monochoria vaginalis [6]) | herbicidal effect, Crabgrass (crabgrass [14])
50%: herbicidal effect, Chenopodium album (Chenopodium album [11]) | herbicidal effect, Amaranthus viridis (Amaranthus viridis [13])
60%: Weed suppression rate (%) Scirpus juncoides (Scirpus juncoides [7]) | Weed suppression rate (%) Echinochloa crus-galli (Echinochloa crus-galli [8])
100%: herbicidal effect, Echinochloa crus-galli (Echinochloa crus-galli [12])

CC(C)N(C(=O)n1cnn(S(=O)(=O)c2c(F)c(F)c(F)c(F)c2F)c1=O)c1ccc(F)cc1Cl [Compound 11-818]
80%: Weed suppression rate (%) Lindemia pyxidaria (Lindernia pyxidaria [9])
60%: herbicidal effect, Chenopodium album (Chenopodium album [11]) | herbicidal effect, Amaranthus viridis (Amaranthus viridis [13])
100%: Weed suppression rate (%) Scirpus juncoides (Scirpus juncoides [3]) | Weed suppression rate (%) Echinochloa crus-galli (Echinochloa crus-galli [4]) | Weed suppression rate (%) Lindemia pyxidaria (Lindernia pyxidaria [5]) | Weed suppression rate (%) Monochoria vaginalis (Monochoria vaginalis [6]) | Weed suppression rate (%) Scirpus juncoides (Scirpus juncoides [7]) | Weed suppression rate (%) Echinochloa crus-galli (Echinochloa crus-galli [8]) | Weed suppression rate (%) Monochoria vaginalis (Monochoria vaginalis [10]) | herbicidal effect, Echinochloa crus-galli (Echinochloa crus-galli [12]) | herbicidal effect, Crabgrass (crabgrass [14])

CC(C)N(C(=O)n1cnn(S(=O)(=O)Cc2ccccc2)c1=O)c1ccc(F)cc1F [Compound 11-944]
100%: Weed suppression rate (%) Lindemia pyxidaria (Lindernia pyxidaria [5]) | Weed suppression rate (%) Monochoria vaginalis (Monochoria vaginalis [6])
0%: herbicidal effect, Chenopodium album (Chenopodium album [11]) | herbicidal effect, Amaranthus viridis (Amaranthus viridis [13])
90%: Weed suppression rate (%) Scirpus juncoides (Scirpus juncoides [3]) | Weed suppression rate (%) Echinochloa crus-galli (Echinochloa crus-galli [4]) | Weed suppression rate (%) Scirpus juncoides (Scirpus juncoides [7]) | Weed suppression rate (%) Echinochloa crus-galli (Echinochloa crus-galli [8]) | Weed suppression rate (%) Lindemia pyxidaria (Lindernia pyxidaria [9]) | Weed suppression rate (%) Monochoria vaginalis (Monochoria vaginalis [10]) | herbicidal effect, Echinochloa crus-galli (Echinochloa crus-galli [12]) | herbicidal effect, Crabgrass (crabgrass [14])

CC(C)N(C(=O)n1cnn(S(=O)(=O)c2cccs2)c1=O)c1cccc(F)c1F [Compound 11-1021]
70%: herbicidal effect, Chenopodium album (Chenopodium album [11]) | herbicidal effect, Amaranthus viridis (Amaranthus viridis [13])
100%: Weed suppression rate (%) Scirpus juncoides (Scirpus juncoides [3]) | Weed suppression rate (%) Echinochloa crus-galli (Echinochloa crus-galli [4]) | Weed suppression rate (%) Lindemia pyxidaria (Lindernia pyxidaria [5]) | Weed suppression rate (%) Monochoria vaginalis (Monochoria vaginalis [6]) | Weed suppression rate (%) Scirpus juncoides (Scirpus juncoides [7]) | Weed suppression rate (%) Echinochloa crus-galli (Echinochloa crus-galli [8]) | herbicidal effect, Crabgrass (crabgrass [14])
90%: Weed suppression rate (%) Monochoria vaginalis (Monochoria vaginalis [10]) | herbicidal effect, Echinochloa crus-galli (Echinochloa crus-galli [12])
80%: Weed suppression rate (%) Lindemia pyxidaria (Lindernia pyxidaria [9])

CC(C)N(C(=O)n1cnn(S(=O)(=O)c2cccs2)c1=O)c1c(F)cccc1F [Compound 11-1024]
90%: Weed suppression rate (%) Scirpus juncoides (Scirpus juncoides [7]) | Weed suppression rate (%) Monochoria vaginalis (Monochoria vaginalis [10])
100%: Weed suppression rate (%) Echinochloa crus-galli (Echinochloa crus-galli [4]) | Weed suppression rate (%) Echinochloa crus-galli (Echinochloa crus-galli [8]) | herbicidal effect, Crabgrass (crabgrass [14])
60%: herbicidal effect, Chenopodium album (Chenopodium album [11]) | herbicidal effect, Amaranthus viridis (Amaranthus viridis [13])
70%: Weed suppression rate (%) Monochoria vaginalis (Monochoria vaginalis [6]) | herbicidal effect, Echinochloa crus-galli (Echinochloa crus-galli [12])
80%: Weed suppression rate (%) Scirpus juncoides (Scirpus juncoides [3]) | Weed suppression rate (%) Lindemia pyxidaria (Lindernia pyxidaria [5]) | Weed suppression rate (%) Lindemia pyxidaria (Lindernia pyxidaria [9])
